ChEMBL document CHEMBL6177968, “Development of sulfamoylbenzamide-based capsid assembly modulators for hepatitis B virus capsid assembly” (Eur J Med Chem, 2025)

Columns and labels:
[1] = Metabolic stability in rat liver microsomes assessed as compound remaining measured after 30 mins; type: ADME, Microsome; conditions: read-out: Stability
[2] = Metabolic stability in mouse liver microsomes assessed as compound remaining measured after 30 mins; type: ADME, Microsome; conditions: read-out: Stability
[3] = test system: Hepatitis B virus; assay: Antiviral activity against HBV in human HepG2.2.15 cells assessed as reduction in viral replication incubated for 5 days by real-time PCR analysis; type: functional, organism-based; conditions: HepG2.2.15, 120 h
[4] = Metabolic stability in human liver microsomes assessed as compound remaining measured after 30 mins; type: ADME, Microsome; conditions: read-out: Stability
[5] = Cytotoxicity in human HepG2.2.15 cells assessed as reduction in cell viability; type: toxicity, cell-based, HepG2 2.2.15
[6] = Selectivity index, ratio of CC50 for cytotoxicity in human HepG2.2.15 cells assessed as reduction in cell viability to EC50 for antiviral activity against HBV in human HepG2.2.15 cells assessed as reduction in viral replication; type: toxicity, cell-based; conditions: read-out: Ratio CC50/EC50
[7] = test system: Hepatitis B virus; assay: Antiviral activity against HBV in human HepG2 cells expressing NTCP assessed as reduction in viral replication; type: functional, organism-based
[8] = Half life in male mouse at 20 mg/kg, po; type: ADME, organism-based; conditions: in vivo
[9] = test system: Hepatitis B virus; assay: Antiviral activity against HBV infected in human HepG2 cells expressing NTCP assessed as ratio of capsid associated HBV DNA level at 1 uM incubated for 6 days by Western blot analysis (reference value: 100 %); type: functional; conditions: time 6 day
[10] = target: Cytochrome P450 2C19 (Homo sapiens, UniProt P33261); assay: Inhibition of CYP2C19 in human liver microsome; type: ADME, microsomes
[11] = Oral bioavailability in male mouse at 20 mg/kg; type: ADME, organism-based; conditions: in vivo
[12] = test system: Hepatitis B virus; assay: Antiviral activity against HBV infected in human HepG2 cells expressing NTCP assessed as intracellular HBc level at 1 uM incubated for 6 days by Western blot analysis (reference value: 100 %); type: functional; conditions: time 6 day
[13] = test system: Hepatitis B virus; assay: Antiviral activity against HBV infected in human HepG2 cells expressing NTCP assessed as capsid level at 1 uM incubated for 6 days by Western blot analysis (reference value: 100 %); type: functional; conditions: time 6 day
[14] = Clearance in male mouse at 20 mg/kg, iv; type: ADME, organism-based; conditions: in vivo
[15] = AUC (0 to infinity) in male mouse at 5 mg/kg, iv; type: ADME, organism-based; conditions: in vivo
[16] = Oral bioavailability in male mouse at 5 mg/kg; type: ADME, organism-based; conditions: in vivo
[17] = Cytotoxicity in HFL1 cells; type: toxicity, cell-based; conditions: human
[18] = test system: Hepatitis B virus; assay: Antiviral activity against HBV in human HepaRG cells assessed as reduction in viral replication; type: functional, organism-based
[19] = Half life in male mouse at 5 mg/kg, iv; type: ADME, organism-based; conditions: in vivo
[20] = Tmax in male mouse at 20 mg/kg, po; type: ADME, organism-based; conditions: in vivo
[21] = AUClast in male mouse at 5 mg/kg, po; type: ADME, organism-based; conditions: in vivo
[22] = target: Cytochrome P450 2C9 (Homo sapiens, UniProt P11712); assay: Inhibition of CYP2C9 in human liver microsome; type: ADME, microsomes
[23] = target: Cytochrome P450 3A4 (Homo sapiens, UniProt P08684); assay: Inhibition of CYP3A4 in human liver microsome; type: ADME, microsomes
[24] = Cytotoxicity in mouse L929 cells; type: toxicity, cell-based
[25] = Clearance in male mouse at 5 mg/kg, iv; type: ADME, organism-based; conditions: in vivo
[26] = Plasma protein binding in mouse; type: ADME, cell-free; conditions: read-out: PPB (converted)
[27] = test system: Hepatitis B virus; assay: Antiviral activity against HBV infected in human HepG2 cells expressing NTCP assessed as decrease in intracellular HBc level at 1 uM incubated for 6 days by indirect immunofluorescence staining based analysis; type: functional, organism-based; conditions: time 6.0 day
[28] = Half life in male mouse at 5 mg/kg, po; type: ADME, organism-based; conditions: in vivo
[29] = Half life in male mouse at 20 mg/kg, iv; type: ADME, organism-based; conditions: in vivo
[30] = AUC (0 to infinity) in male mouse at 5 mg/kg, po; type: ADME, organism-based; conditions: in vivo
[31] = Cmax in male mouse at 20 mg/kg, po; type: ADME, organism-based; conditions: in vivo
[32] = test system: Hepatitis B virus; assay: Antiviral activity against HBV infected in human HepG2 cells expressing NTCP assessed as fold increase in intracellular capsid level at 1 uM incubated for 6 days by Western blot analysis relative to control; type: functional; conditions: time 6 day
[33] = Tmax in male mouse at 5 mg/kg, po; type: ADME, organism-based; conditions: in vivo
[34] = Cytotoxicity in mouse NIH3T3 cells; type: toxicity, cell-based
[35] = Plasma protein binding in human; type: ADME, cell-free; conditions: read-out: PPB (converted)
[36] = Stability in human plasma assessed as compound remaining incubated for 4 hrs; type: ADME, cell-free; conditions: read-out: Stability
[37] = Volume of distribution at steady state in male mouse at 5 mg/kg, iv; type: ADME, organism-based; conditions: in vivo, read-out: Vdss
[38] = target: Voltage-gated inwardly rectifying potassium channel KCNH2 (Homo sapiens, UniProt Q12809); assay: Inhibition of human ERG; type: toxicity
[39] = test system: Hepatitis B virus; assay: Antiviral activity against HBV infected in human HepG2 cells expressing NTCP assessed as viral DNA replication at 1 uM incubated for 6 days by Southern blot analysis (reference value: 100 %); type: functional; conditions: time 6 day
[40] = AUC (0 to infinity) in male mouse at 20 mg/kg, iv; type: ADME, organism-based; conditions: in vivo
[41] = test system: HepG2; assay: Effect on viral rcDNA level in human HepG2 cells expressing NTCP infected with HBV at 1 uM incubated for 6 days by Southern blot analysis; type: functional, cell-based; conditions: time 6.0 day
[42] = Cytotoxicity in African green monkey Vero cells; type: toxicity, cell-based, Chlorocebus sabaeus
[43] = Cytotoxicity in human HepG2-hNTCP cells assessed as reduction in cell viability; type: toxicity, cell-based
[44] = Cytotoxicity in human HepaRG cells assessed as reduction in cell viability; type: toxicity, cell-based
[45] = Cmax in male mouse at 5 mg/kg, po; type: ADME, organism-based; conditions: in vivo
[46] = AUClast in male mouse at 5 mg/kg, iv; type: ADME, organism-based; conditions: in vivo
[47] = test system: HepG2; assay: Effect on viral dslDNA level in human HepG2 cells expressing NTCP infected with HBV at 1 uM incubated for 6 days by Southern blot analysis; type: functional, cell-based; conditions: time 6.0 day
[48] = AUClast in male mouse at 20 mg/kg, iv; type: ADME, organism-based; conditions: in vivo
[49] = Cytotoxicity in CHO-K1 cells; type: toxicity, cell-based, Cricetulus griseus; conditions: Chinese hamster
[50] = Selectivity index, ratio of CC50 for cytotoxicity in human HepG2-hNTCP cells assessed as reduction in cell viability to EC50 for antiviral activity against HBV in human HepG2-hNTCP cells assessed as reduction in viral replication; type: toxicity, cell-based; conditions: read-out: Ratio CC50/EC50
[51] = test system: HepG2; assay: Effect on viral ssDNA level in human HepG2 cells expressing NTCP cells infected with HBV at 1 uM incubated for 6 days by Southern blot analysis; type: functional, cell-based; conditions: time 6.0 day
[52] = Stability in mouse plasma assessed as compound remaining incubated for 4 hrs; type: ADME, cell-free; conditions: read-out: Stability
[53] = Selectivity index, ratio of CC50 for cytotoxicity in human HepaRG cells assessed as reduction in cell viability to EC50 for antiviral activity against HBV in human HepaRG cells assessed as reduction in viral replication; type: toxicity, cell-based; conditions: read-out: Ratio CC50/EC50
[54] = test system: Hepatitis B virus; assay: Antiviral activity against HBV infected in human HepG2 cells expressing NTCP assessed as fold reduction in capsid associated viral DNA level at 1 uM incubated for 6 days by Southern blot analysis relative to control; type: functional; conditions: time 6 day
[55] = AUClast in male mouse at 20 mg/kg, po; type: ADME, organism-based; conditions: in vivo
[56] = target: Cytochrome P450 2D6 (Homo sapiens, UniProt P10635); assay: Inhibition of CYP2D6 in human liver microsome; type: ADME, microsomes
[57] = target: T1, Cytochrome P450 1A2 (Homo sapiens, UniProt P05177); assay: Inhibition of CYP1A2 in human liver microsome; type: ADME, microsomes
T1 sequence (P05177 whole entry): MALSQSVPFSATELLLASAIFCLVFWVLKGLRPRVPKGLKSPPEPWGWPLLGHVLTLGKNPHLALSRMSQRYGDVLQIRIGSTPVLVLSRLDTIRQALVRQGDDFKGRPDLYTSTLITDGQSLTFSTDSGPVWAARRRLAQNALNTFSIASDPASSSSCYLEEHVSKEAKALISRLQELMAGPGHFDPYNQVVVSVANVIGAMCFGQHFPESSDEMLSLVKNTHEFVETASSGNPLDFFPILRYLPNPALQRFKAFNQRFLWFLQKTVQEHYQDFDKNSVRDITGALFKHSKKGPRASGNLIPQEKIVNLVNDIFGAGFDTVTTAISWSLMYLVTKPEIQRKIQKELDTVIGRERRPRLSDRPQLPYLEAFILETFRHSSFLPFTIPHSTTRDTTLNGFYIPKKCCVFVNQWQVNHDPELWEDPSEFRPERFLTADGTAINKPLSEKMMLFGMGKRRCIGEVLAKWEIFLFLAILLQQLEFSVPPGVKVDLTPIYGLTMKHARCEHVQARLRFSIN

[58] = test system: Hepatitis B virus; assay: Antiviral activity against HBV infected in human HepG2 cells expressing NTCP assessed as capsid associated HBV DNA level at 1 uM incubated for 6 days by Western blot analysis (reference value: 100 %); type: functional; conditions: time 6 day
[59] = AUC (0 to infinity) in male mouse at 20 mg/kg, po; type: ADME, organism-based; conditions: in vivo
[60] = Volume of distribution at steady state in male mouse at 20 mg/kg, iv; type: ADME, organism-based; conditions: in vivo, read-out: Vdss

Chain of Cytochrome P450 2C19 (P33261 whole entry): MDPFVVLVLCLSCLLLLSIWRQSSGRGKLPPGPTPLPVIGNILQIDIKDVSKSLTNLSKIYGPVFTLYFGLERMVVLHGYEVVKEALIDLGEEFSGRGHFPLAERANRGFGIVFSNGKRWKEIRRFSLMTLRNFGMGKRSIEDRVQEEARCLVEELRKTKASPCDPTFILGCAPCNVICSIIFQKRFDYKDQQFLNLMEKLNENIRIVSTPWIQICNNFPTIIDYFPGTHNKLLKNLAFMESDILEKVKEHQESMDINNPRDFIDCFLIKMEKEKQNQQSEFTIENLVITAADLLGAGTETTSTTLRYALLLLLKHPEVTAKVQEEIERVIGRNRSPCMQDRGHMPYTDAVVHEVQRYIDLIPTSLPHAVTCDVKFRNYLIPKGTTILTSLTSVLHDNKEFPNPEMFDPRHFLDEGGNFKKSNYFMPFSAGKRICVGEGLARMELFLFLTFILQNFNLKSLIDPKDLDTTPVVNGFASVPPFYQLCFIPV
Chain of Cytochrome P450 3A4 (P08684 whole entry): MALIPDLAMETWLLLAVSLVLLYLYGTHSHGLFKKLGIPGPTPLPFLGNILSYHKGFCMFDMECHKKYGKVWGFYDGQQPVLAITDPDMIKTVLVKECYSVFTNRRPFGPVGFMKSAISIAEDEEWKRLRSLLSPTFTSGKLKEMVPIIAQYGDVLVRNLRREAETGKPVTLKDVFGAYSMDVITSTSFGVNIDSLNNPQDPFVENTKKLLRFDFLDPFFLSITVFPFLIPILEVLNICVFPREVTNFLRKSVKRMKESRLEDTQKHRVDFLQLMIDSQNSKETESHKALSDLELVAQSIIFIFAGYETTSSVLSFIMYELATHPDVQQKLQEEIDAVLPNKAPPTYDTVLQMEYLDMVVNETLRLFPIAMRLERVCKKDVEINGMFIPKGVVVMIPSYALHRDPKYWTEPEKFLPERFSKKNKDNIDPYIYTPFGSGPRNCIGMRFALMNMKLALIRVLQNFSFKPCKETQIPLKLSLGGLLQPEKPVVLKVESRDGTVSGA
Chain of Cytochrome P450 2C9 (P11712 whole entry): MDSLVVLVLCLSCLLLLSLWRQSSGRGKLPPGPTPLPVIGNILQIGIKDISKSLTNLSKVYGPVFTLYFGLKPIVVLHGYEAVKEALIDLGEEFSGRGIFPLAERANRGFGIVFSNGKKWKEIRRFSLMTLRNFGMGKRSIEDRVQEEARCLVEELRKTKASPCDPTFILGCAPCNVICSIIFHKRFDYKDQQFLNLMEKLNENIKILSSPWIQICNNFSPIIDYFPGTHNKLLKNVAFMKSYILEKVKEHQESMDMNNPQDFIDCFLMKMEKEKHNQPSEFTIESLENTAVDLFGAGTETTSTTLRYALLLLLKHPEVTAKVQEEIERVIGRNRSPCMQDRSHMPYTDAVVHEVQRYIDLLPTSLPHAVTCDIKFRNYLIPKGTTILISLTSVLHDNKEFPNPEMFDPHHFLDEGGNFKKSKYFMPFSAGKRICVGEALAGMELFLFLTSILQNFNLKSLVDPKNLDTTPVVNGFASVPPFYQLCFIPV
Chain of Cytochrome P450 2D6 (P10635 whole entry): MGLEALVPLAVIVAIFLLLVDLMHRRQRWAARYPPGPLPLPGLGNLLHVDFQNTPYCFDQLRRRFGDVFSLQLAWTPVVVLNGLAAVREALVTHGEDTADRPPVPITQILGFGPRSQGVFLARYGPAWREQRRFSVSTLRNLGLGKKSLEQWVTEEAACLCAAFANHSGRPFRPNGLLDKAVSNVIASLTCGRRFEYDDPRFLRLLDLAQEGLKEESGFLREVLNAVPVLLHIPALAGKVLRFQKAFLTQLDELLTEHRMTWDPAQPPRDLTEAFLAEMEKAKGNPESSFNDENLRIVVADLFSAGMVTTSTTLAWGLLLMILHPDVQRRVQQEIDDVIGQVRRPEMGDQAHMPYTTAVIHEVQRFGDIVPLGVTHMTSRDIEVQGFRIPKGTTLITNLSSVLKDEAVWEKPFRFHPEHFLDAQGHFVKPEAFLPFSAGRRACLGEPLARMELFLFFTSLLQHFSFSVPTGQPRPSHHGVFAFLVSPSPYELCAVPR
Chain of Voltage-gated inwardly rectifying potassium channel KCNH2 (Q12809 whole entry): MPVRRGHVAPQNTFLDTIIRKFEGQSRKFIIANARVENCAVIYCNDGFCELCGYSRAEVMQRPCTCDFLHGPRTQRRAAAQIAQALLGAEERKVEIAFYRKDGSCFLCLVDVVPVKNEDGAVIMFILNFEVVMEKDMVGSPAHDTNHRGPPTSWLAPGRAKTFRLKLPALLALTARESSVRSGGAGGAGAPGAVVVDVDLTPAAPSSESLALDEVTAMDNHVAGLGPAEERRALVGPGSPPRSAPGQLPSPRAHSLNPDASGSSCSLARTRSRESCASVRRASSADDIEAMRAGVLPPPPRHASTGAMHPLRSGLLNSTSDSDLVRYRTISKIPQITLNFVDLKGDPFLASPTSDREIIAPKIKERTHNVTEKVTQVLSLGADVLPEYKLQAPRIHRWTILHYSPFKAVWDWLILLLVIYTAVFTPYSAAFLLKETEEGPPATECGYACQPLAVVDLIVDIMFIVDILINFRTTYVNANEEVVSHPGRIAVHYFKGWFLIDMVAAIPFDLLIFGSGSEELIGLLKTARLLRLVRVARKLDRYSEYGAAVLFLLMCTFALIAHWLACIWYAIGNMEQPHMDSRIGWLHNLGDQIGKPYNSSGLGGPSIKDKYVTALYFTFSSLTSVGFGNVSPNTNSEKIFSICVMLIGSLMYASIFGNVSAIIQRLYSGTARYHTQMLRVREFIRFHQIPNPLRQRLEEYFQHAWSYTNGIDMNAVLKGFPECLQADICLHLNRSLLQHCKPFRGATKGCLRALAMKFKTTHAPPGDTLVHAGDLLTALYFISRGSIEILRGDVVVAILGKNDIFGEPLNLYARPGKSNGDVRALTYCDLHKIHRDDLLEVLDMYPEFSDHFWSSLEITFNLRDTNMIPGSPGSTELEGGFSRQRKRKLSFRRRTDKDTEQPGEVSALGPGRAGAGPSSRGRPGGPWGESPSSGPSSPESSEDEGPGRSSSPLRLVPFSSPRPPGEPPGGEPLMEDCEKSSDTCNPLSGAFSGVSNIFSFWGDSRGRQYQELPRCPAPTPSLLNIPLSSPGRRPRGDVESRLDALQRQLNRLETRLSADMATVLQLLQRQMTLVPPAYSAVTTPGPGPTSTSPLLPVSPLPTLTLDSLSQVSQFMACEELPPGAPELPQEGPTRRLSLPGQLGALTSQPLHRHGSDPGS

SMILES: CC1(CNS(=O)(=O)c2cc(C(=O)Nc3ccc(F)c(C(F)F)c3)c(N)cc2F)COC1
- remaining at 0.5 h [1]: 8.38%
- remaining at 0.5 h [2]: 1.37%
- EC50 [3]: 0.06 µM
- remaining at 0.5 h [4]: 23.6%
- CC50 [5]: 855 µM
- selectivity ratio [6]: 14300

SMILES: Nc1cc(F)c(S(=O)(=O)N[C@H]2CNC2=O)cc1C(=O)Nc1ccc(F)c(C(F)F)c1
- EC50 [7]: 0.11 µM
- half-life [8]: 5.52 h
- Ratio [9]: 10%
- IC50 [10]: 44.5 µM
- bioavailability [11]: 21.9%
- Activity [12]: 129%
- Activity [13]: 183%
- clearance [14]: 50.5 mL/min/kg
- AUC(0-inf) [15]: 2400 ng·h/mL
- bioavailability [16]: 26%
- IC50 [17]: > 100 µM
- EC50 [18]: 0.55 µM
- half-life [19]: 2.37 h
- Tmax [20]: 0.33 h
- AUC(0-t) [21]: 620 ng·h/mL
- remaining at 0.5 h [1]: 51%
- IC50 [22]: 31.1 µM
- IC50 [23]: 26.1 µM
- IC50 [24]: > 100 µM
- remaining at 0.5 h [2]: 49%
- clearance [25]: 35.2 mL/min/kg
- fraction unbound [26]: 0.0555
- Activity [27]: Active; Compound Modestly Decreased Hbc Level
- half-life [28]: 2.8 h
- half-life [29]: 5.15 h
- AUC(0-inf) [30]: 620 ng·h/mL
- Cmax [31]: 900 ng/mL
- fold change (FC) [32]: ~2
- EC50 [3]: 0.12 µM
- Tmax [33]: 0.5 h
- IC50 [34]: > 100 µM
- fraction unbound [35]: 0.115
- remaining at 4 h [36]: 85.4%
- Vd [37]: 2.95 L/kg
- IC50 [38]: > 10 µM
- remaining at 0.5 h [4]: 66.9%
- Activity [39]: 13%
- AUC(0-inf) [40]: 6950 ng·h/mL
- Activity [41]: No effect
- IC50 [42]: > 100 µM
- CC50 [43]: > 100 µM
- CC50 [44]: > 100 µM
- Cmax [45]: 280 ng/mL
- AUC(0-t) [46]: 2390 ng·h/mL
- Activity [47]: No effect
- CC50 [5]: 173 µM
- selectivity ratio [6]: 1420
- AUC(0-t) [48]: 6880 ng·h/mL
- IC50 [49]: > 100 µM
- selectivity ratio [50]: > 909
- Activity [51]: No effect
- remaining at 4 h [52]: 43.2%
- selectivity ratio [53]: > 182
- fold change (FC) [54]: 8
- AUC(0-t) [55]: 1510 ng·h/mL
- IC50 [56]: 29.9 µM
- IC50 [57]: > 100 µM
- Activity [58]: 19%
- AUC(0-inf) [59]: 1600 ng·h/mL
- Vd [60]: 4.16 L/kg
